By pKi is commonly meant −log10 of the Ki, conventionally taken in molar units. As usually defined, the pIC50 is the IC50 on a negative log10 scale, so that one unit is a factor of ten. One may read the melting point as the temperature, or range, at which the solid turns liquid.

pIC50, pKi: −log10 of the molar value.

The results in this text go back to patent publication US7381723B2, “Azabicyclylmethyl derivatives of 7,8-dihydro-1,6,9,-trioxa-3-aza-cyclopenta[a]naphthalene as 5-HT1A antagonists” (Wyeth, priority 2001, dated 2008).

One data set deals with T1, human 5-HT1A receptors (Homo sapiens, UniProt P08908).
T1 construct: expressed in transfected cells; host or cells: CHO cells
T1 sequence (P08908 1-422): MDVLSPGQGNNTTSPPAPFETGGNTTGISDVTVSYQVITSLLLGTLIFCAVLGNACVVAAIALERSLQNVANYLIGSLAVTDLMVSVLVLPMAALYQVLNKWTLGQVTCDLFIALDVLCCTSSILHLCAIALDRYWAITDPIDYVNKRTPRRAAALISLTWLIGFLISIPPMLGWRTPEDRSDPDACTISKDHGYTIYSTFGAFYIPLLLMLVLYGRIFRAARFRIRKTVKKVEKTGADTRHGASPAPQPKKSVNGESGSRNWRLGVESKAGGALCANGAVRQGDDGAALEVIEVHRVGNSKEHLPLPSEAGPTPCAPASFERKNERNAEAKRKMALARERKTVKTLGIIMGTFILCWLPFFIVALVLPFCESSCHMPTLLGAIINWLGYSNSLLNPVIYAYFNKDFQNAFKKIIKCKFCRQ
Description: [3H] 8-OH-DPAT displacement from 5-HT1A receptor (CHO cells). The settings on record: displacement of [3H] 8-OH-DPAT, CHO cells stably transfected with human 5-HT1A; read-out: 5-HT1A Receptor Affinity KI. In kind it is binding. The text has this: High affinity for the serotonin 5-HT1A receptor was established by testing the claimed compound's ability to displace [^3H] 8-OH-DPAT (dipropylaminotetralin) from the 5-HT1A serotonin receptor following a modification of the procedure of Hall et al., J. Neurochem. 44, 1685 (1985) which utilizes CHO cells stably transfected with human 5-HT1A receptors.
(In general: In a radioligand displacement assay an active substance lowers the binding of a labelled ligand.)

The target in data set [1] is T2, cloned human 5-HT1A receptors (Homo sapiens, UniProt P08908).
T2 construct: expressed in transfected cells
T2 sequence (P08908 1-422): T1 sequence (P08908 1-422)
Description: 35S-GTPγS binding assay, antagonist activity versus 8-OH-DPAT. The conditions noted are these: reversal of 8-OH-DPAT effect on 35S-GTPγS binding; for pIC50: read-out: 5-HT1A Function IC50. In kind it is biochemical. Here is the method: Antagonist activity at 5-HT1A receptors was established by using a ^35S-GTPγS binding assay similar to that used by Lazareno and Birdsall (Br. J. Pharmacol. 109: 1120, 1993), in which the test compound's ability to affect the binding of ^35S-GTPγS to membranes containing cloned human 5-HT1A receptors was determined. Agonists produce an increase in binding whereas antagonists produce no increase but rather reverse the effects of the standard agonist 8-OH-DPAT. The test compound's maximum inhibitory effect is represented as the Imax, while its potency is defined by the IC50.
A general note: Binding of GTPγS marks nucleotide exchange on a G protein.

Regarding `Cc1nc2ccc3c(c2o1)OC(CN1C2CCC1CC(O)(c1ccc4ccccc4c1)C2)CO3` (stereo not drawn) [Example 3, 8-{[2-Methyl-7,8-dihydro[1,4]dioxino[2,3-g][1,3]benzoxazol-8-yl]methyl}-3-(2-naphthyl)-8-azabicyclo[3.2.1]octan-3-ol], on human 5-HT1A receptors, the pKi was 8.43. For the same molecule, in data set [1], the “5-HT1A Function Imax (maximum inhibitory effect)” value worked out at 95% and the pIC50 is 7.57.

`Cc1nc2ccc3c(c2o1)OC(CN1C2CCC1CC(O)(c1ccccc1)C2)CO3` (stereo not drawn) [Example 1, 8-{[2-Methyl-7,8-dihydro[1,4]dioxino[2,3-g][1,3]benzoxazol-8-yl]methyl}-3-phenyl-8-azabicyclo[3.2.1]octan-3-ol] had a melting point of 203 to 205 °C. Also, the pKi at human 5-HT1A receptors is 9.27. Besides, in data set [1], the “5-HT1A Function Imax (maximum inhibitory effect)” value is recorded as 76% and the pIC50 was 7.28.

`Cc1nc2ccc3c(c2o1)OC(CN1C2CCC1CC(O)(c1cccc(C(F)(F)F)c1)C2)CO3` (stereo not drawn) [Example 2, 8-{[2-Methyl-7,8-dihydro[1,4]dioxino[2,3-g][1,3]benzoxazol-8-yl]methyl}-3-[3-(trifluoromethyl)phenyl]-8-azabicyclo[3.2.1]octan-3-ol] returned a melting point of 148 to 150 °C. The pKi at human 5-HT1A receptors was 9.11.
